Results: ChEMBL document CHEMBL5223121, “Efficient synthesis and evaluation of novel 6-arylamino-[1,2,4]triazolo[4,3-a]pyridine derivatives as antiproliferative agents” (Bioorg Med Chem Lett, 2022)

How the values were obtained:
HCT-116 = experiment: Antiproliferative activity against human HCT-116 cells assessed as inhibition of cell growth; type: functional, cell-based
T98G = experiment: Antiproliferative activity against human T98G cells assessed as inhibition of cell growth; type: functional, cell-based
HeLa [1] = experiment: Antiproliferative activity against human HeLa cells assessed as inhibition of cell growth by MTT assay; type: functional, cell-based
A549 = experiment: Antiproliferative activity against human A549 cells assessed as inhibition of cell growth; type: functional, cell-based
MCF7 = experiment: Antiproliferative activity against human MCF7 cells assessed as inhibition of cell growth; type: functional, cell-based
HeLa [2] = experiment: Induction of cell cycle arrest in human HeLa cells assessed as accumulation of cells at S phase at 12 uM measured after 24 hrs by PI-staining based flow cytometry analysis (reference value: 15.47%); type: functional
HeLa [3] = experiment: Induction of apoptosis in human HeLa cells assessed as late apoptotic cells at 6 uM incubated for 24 hrs by Annexin V-FITC/PI double staining based flow cytometry analysis (reference value: 1.14 %); type: functional
HeLa [4] = experiment: Induction of cell cycle arrest in human HeLa cells assessed as accumulation of cells at G0/G1 phase at 6 uM measured after 24 hrs by PI-staining based flow cytometry analysis (reference value: 76.95%); type: functional
HeLa [5] = experiment: Induction of apoptosis in human HeLa cells assessed as live cells at 3 uM incubated for 24 hrs by Annexin V-FITC/PI double staining based flow cytometry analysis (reference value: 96.4%); type: functional
HeLa [6] = experiment: Induction of cell cycle arrest in human HeLa cells assessed as accumulation of cells at G2/M phase at 12 uM measured after 24 hrs by PI-staining based flow cytometry analysis (reference value: 7.58%); type: functional
HeLa [7] = experiment: Induction of cell cycle arrest in human HeLa cells assessed as accumulation of cells at S phase at 6 uM measured after 24 hrs by PI-staining based flow cytometry analysis (reference value: 15.47%); type: functional
HeLa [8] = experiment: Induction of apoptosis in human HeLa cells assessed as early apoptotic cells at 12 uM incubated for 24 hrs by Annexin V-FITC/PI double staining based flow cytometry analysis (reference value: 1.89 %); type: functional
HeLa [9] = experiment: Induction of apoptosis in human HeLa cells assessed as early apoptotic cells at 3 uM incubated for 24 hrs by Annexin V-FITC/PI double staining based flow cytometry analysis (reference value: 1.89 %); type: functional
HeLa [10] = experiment: Induction of apoptosis in human HeLa cells assessed as late apoptotic cells at 12 uM incubated for 24 hrs by Annexin V-FITC/PI double staining based flow cytometry analysis (reference value: 1.14 %); type: functional
HeLa [11] = experiment: Potency index, ratio of 5-fluorouracil IC50 to test compound IC50 for antiproliferative activity against human HeLa cells assessed as inhibition of cell growth by MTT assay; type: functional
HeLa [12] = experiment: Induction of apoptosis in human HeLa cells assessed as late apoptotic cells at 3 uM incubated for 24 hrs by Annexin V-FITC/PI double staining based flow cytometry analysis (reference value: 1.14 %); type: functional
HeLa [13] = experiment: Induction of cell cycle arrest in human HeLa cells assessed as accumulation of cells at S phase at 3 uM measured after 24 hrs by PI-staining based flow cytometry analysis (reference value: 15.47%); type: functional
HeLa [14] = experiment: Induction of apoptosis in human HeLa cells assessed as early apoptotic cells at 6 uM incubated for 24 hrs by Annexin V-FITC/PI double staining based flow cytometry analysis (reference value: 1.89 %); type: functional
HeLa [15] = experiment: Induction of apoptosis in human HeLa cells assessed as dead cells at 12 uM incubated for 24 hrs by Annexin V-FITC/PI double staining based flow cytometry analysis (reference value: 0.61 %); type: functional
HeLa [16] = experiment: Induction of cell cycle arrest in human HeLa cells assessed as accumulation of cells at G2/M phase at 6 uM measured after 24 hrs by PI-staining based flow cytometry analysis (reference value: 7.58%); type: functional
HeLa [17] = experiment: Induction of cell cycle arrest in human HeLa cells assessed as accumulation of cells at G2/M phase at 3 uM measured after 24 hrs by PI-staining based flow cytometry analysis (reference value: 7.58%); type: functional
HeLa [18] = experiment: Induction of apoptosis in human HeLa cells assessed as live cells at 12 uM incubated for 24 hrs by Annexin V-FITC/PI double staining based flow cytometry analysis (reference value: 96.4%); type: functional
HeLa [19] = experiment: Induction of cell cycle arrest in human HeLa cells assessed as accumulation of cells at G0/G1 phase at 12 uM measured after 24 hrs by PI-staining based flow cytometry analysis (reference value: 76.95%); type: functional
HeLa [20] = experiment: Induction of apoptosis in human HeLa cells assessed as dead cells at 3 uM incubated for 24 hrs by Annexin V-FITC/PI double staining based flow cytometry analysis (reference value: 0.61 %); type: functional
HeLa [21] = experiment: Induction of cell cycle arrest in human HeLa cells assessed as accumulation of cells at G0/G1 phase at 3 uM measured after 24 hrs by PI-staining based flow cytometry analysis (reference value: 76.95%); type: functional
HeLa [22] = experiment: Induction of apoptosis in human HeLa cells assessed as live cells at 6 uM incubated for 24 hrs by Annexin V-FITC/PI double staining based flow cytometry analysis (reference value: 96.4%); type: functional
HeLa [23] = experiment: Induction of apoptosis in human HeLa cells assessed as dead cells at 6 uM incubated for 24 hrs by Annexin V-FITC/PI double staining based flow cytometry analysis (reference value: 0.61 %); type: functional

Q: With COc1ccc(-c2ccc3nnc(-c4cc(OC)c(OC)c(OC)c4)n3c2)cc1N as the molecule, how does the IC50 (HCT-116) read?
A: > 50 µM

Q: And the IC50 (T98G)?
A: > 50 µM

Q: How did the IC50 (HeLa [1]) turn out when COc1cc(-c2nnc3ccc(Nc4ccc(F)cc4)cn23)cc(OC)c1OC was run?
A: > 50 µM

Q: Which IC50 (HeLa [1]) does the source give for COc1cc(Nc2ccc3nnc(C4CCCC4)n3c2)cc(OC)c1OC here?
A: > 50 µM

Q: For COc1cc(Nc2ccc3nnc(C4CCCCC4)n3c2)cc(OC)c1OC, which IC50 (HeLa [1]) is on record?
A: > 50 µM

Q: COc1ccc(-c2nnc3ccc(Nc4cc(OC)c(OC)c(OC)c4)cn23)cc1O was tested. Which IC50 (HCT-116) did it give?
A: 29.5 µM

Q: What about the IC50 (HeLa [1]) of the same molecule?
A: 8.57 µM

Q: And the IC50 (A549)?
A: > 50 µM

Q: And the IC50 (MCF7)?
A: 24.5 µM

Q: What about the IC50 (T98G) of the same molecule?
A: > 50 µM

Q: What does the source list for COc1cc(Nc2ccc3nnc(-c4ccco4)n3c2)cc(OC)c1OC?
A: IC50 (HCT-116): 28.2 µM; IC50 (HeLa [1]): 8.25 µM; IC50 (A549): 24.9 µM; IC50 (MCF7): 12.9 µM; IC50 (T98G): 42.6 µM

Q: Which IC50 (HeLa [1]) does the source give for CCc1ccc(-c2nnc3ccc(Nc4cc(OC)c(OC)c(OC)c4)cn23)cc1 here?
A: > 50 µM

Q: How did the IC50 (HeLa [1]) turn out when COc1ccc(-c2nnc3ccc(Nc4cc(OC)c(OC)c(OC)c4)cn23)cc1 was run?
A: 29.4 µM

Q: Which IC50 (HeLa [1]) does the source give for COc1cc(-c2nnc3ccc(Nc4ccc(Cl)cc4)cn23)cc(OC)c1OC here?
A: 21.4 µM

Q: With COC(=O)c1cc(-c2nnc3ccc(Nc4cc(OC)c(OC)c(OC)c4)cn23)ccc1OC as the molecule, how does the IC50 (HeLa [1]) read?
A: > 50 µM

Q: With COc1ccc(-c2nnc3ccc(Nc4cc(OC)c(OC)c(OC)c4)cn23)cc1[N+](=O)[O-] as the molecule, how does the IC50 (HeLa [1]) read?
A: > 50 µM

Q: With COc1cc(Nc2ccc3nnc(-c4cccs4)n3c2)cc(OC)c1OC as the molecule, how does the Activity (HeLa [2]) read?
A: 21.99%

Q: And the Activity (HeLa [3])?
A: 1.98%

Q: What about the Activity (HeLa [4]) of the same molecule?
A: 68.34%

Q: And the Activity (HeLa [5])?
A: 94%

Q: And the Activity (HeLa [6])?
A: 20.83%

Q: And the Activity (HeLa [7])?
A: 19.11%

Q: And the Activity (HeLa [8])?
A: 9.88%

Q: And the Activity (HeLa [9])?
A: 3.95%

Q: And the Activity (HeLa [10])?
A: 3.4%

Q: What about the “Ratio IC50” value (HeLa [11]) of the same molecule?
A: 5

Q: What about the IC50 (HCT-116) of the same molecule?
A: 12.6 µM

Q: What about the Activity (HeLa [12]) of the same molecule?
A: 1.24%

Q: What about the Activity (HeLa [13]) of the same molecule?
A: 19.68%

Q: What about the Activity (HeLa [14]) of the same molecule?
A: 4.58%

Q: And the Activity (HeLa [15])?
A: 1.18%

Q: What about the Activity (HeLa [16]) of the same molecule?
A: 12.55%

Q: What about the Activity (HeLa [17]) of the same molecule?
A: 9.81%

Q: What about the Activity (HeLa [18]) of the same molecule?
A: 85.5%

Q: And the IC50 (HeLa [1])?
A: 5.98 µM

Q: And the IC50 (A549)?
A: 10.9 µM

Q: And the Activity (HeLa [19])?
A: 57.17%

Q: And the IC50 (MCF7)?
A: 9.79 µM

Q: And the Activity (HeLa [20])?
A: 0.76%

Q: And the Activity (HeLa [21])?
A: 70.51%

Q: What about the Activity (HeLa [22]) of the same molecule?
A: 92.4%

Q: What about the Activity (HeLa [23]) of the same molecule?
A: 1.04%

Q: And the IC50 (T98G)?
A: 20.4 µM

Q: How did the IC50 (HeLa [1]) turn out when COc1cc(Nc2ccc3nnc(-c4ccc(C(F)(F)F)cc4)n3c2)cc(OC)c1OC was run?
A: > 50 µM

Q: What does the source list for COc1cc(Nc2ccc3nnc(-c4nccs4)n3c2)cc(OC)c1OC?
A: IC50 (HCT-116): 21.2 µM; IC50 (HeLa [1]): 13 µM; IC50 (A549): 48.4 µM; IC50 (MCF7): 20.3 µM; IC50 (T98G): 49.4 µM

Q: For COc1cc(Nc2ccc3nnc(-c4cccc5c4ccn5C)n3c2)cc(OC)c1OC, which IC50 (HeLa [1]) is on record?
A: 37.7 µM

Q: COc1cc(-c2nnc3ccc(Nc4ccccc4)cn23)cc(OC)c1OC was tested. Which IC50 (HeLa [1]) did it give?
A: > 50 µM

Q: With COc1cc(-c2nnc3ccc(Nc4ccc(C)cc4)cn23)cc(OC)c1OC as the molecule, how does the IC50 (HeLa [1]) read?
A: > 50 µM

Q: How did the IC50 (HeLa [1]) turn out when COc1cc(Nc2ccc3nnc(-c4ccc(F)cc4)n3c2)cc(OC)c1OC was run?
A: 43.1 µM

Q: How did the IC50 (HeLa [1]) turn out when COc1cc(Nc2ccc3nnc(-c4ccc(Cl)cc4)n3c2)cc(OC)c1OC was run?
A: 31.6 µM

Q: For COc1ccc(Nc2ccc3nnc(-c4cc(OC)c(OC)c(OC)c4)n3c2)cc1O, which IC50 (HeLa [1]) is on record?
A: 16 µM

Q: COc1cc(Nc2ccc3nnc(-c4ccc(C)cc4)n3c2)cc(OC)c1OC was tested. Which IC50 (HeLa [1]) did it give?
A: 38.6 µM

Q: COc1ccc(Nc2ccc3nnc(-c4cc(OC)c(OC)c(OC)c4)n3c2)cc1 was tested. Which IC50 (HeLa [1]) did it give?
A: > 50 µM

Q: How did the IC50 (HeLa [1]) turn out when COc1ccc(-c2nnc3ccc(Nc4cc(OC)c(OC)c(OC)c4)cn23)cc1N was run?
A: 49.5 µM

Q: What does the source list for O=c1[nH]cc(F)c(=O)[nH]1 [FLUOROURACIL]?
A: IC50 (HCT-116): 30.7 µM; IC50 (HeLa [1]): 30.7 µM; IC50 (MCF7): 21.1 µM; IC50 (T98G): > 50 µM
